Source: article PMC10487316, “A high‐throughput microfluidic mechanoporation platform to enable intracellular delivery of cyclic peptides in cell‐based assays” (Bioengineering & Translational Medicine, 2023)
Where a SMILES comes first, the peptide text is derived from it. Bridges are numbered along the chain shown (N, C = ends). [ ]: non-standard residue; d: D form. Lys(N3) = [N-]=[N+]=NCCCC[C@H](N)C(=O)O; R8 = C=CCCCCCC[C@@](C)(N)C(=O)O; Cba = N[C@@H](CC1CCC1)C(=O)O; S5 = C=CCCC[C@](C)(N)C(=O)O; βAla = NCCC(=O)O

Key:
MDM2 (1–125) protein = target: T1, MDM2 (1–125) protein (Homo sapiens, UniProt Q00987); assay: MDM2 binding assay (fluorescence anisotropy competition); conditions: competition vs 50 nM FAM-labeled 12/1 peptide, 250 nM MDM2; heat map of Figure 5a
T1 construct: made in house
T1 sequence (Q00987 1-125): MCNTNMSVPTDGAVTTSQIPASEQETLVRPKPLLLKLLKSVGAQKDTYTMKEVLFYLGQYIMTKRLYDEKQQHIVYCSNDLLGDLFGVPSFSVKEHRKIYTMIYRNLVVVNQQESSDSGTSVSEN
Experimental: MDM2 protein generation and binding studies were performed as described.[17] […] The competing molecules were then titrated against the complex of the FAM‐labeled peptide and protein. Curve‐fitting was carried out using Prism 4.0 (GraphPad) to determine K D values. Readings were carried out with an Envision Multilabel Reader (PerkinElmer). […] All titrations were carried out in triplicate.

[1] = tested on: CellSensor p53RE-bla HCT116 cell line (p53 response element reporter); assay: HCT116 p53 β-lactamase reporter gene functional assay; format: cell-based, human; conditions: for p53 activation at 10 μM with and without DμVS: 10 μM peptide, unprocessed vs DμVS-processed cells
Experimental: The CellSensor™ p53RE‐bla HCT116 cell line (K1640, Thermo Scientific) was used for functional characterization of p53 pathway activation by DμVS‐delivered peptides. Assay was performed similarly to how previously described.[17] These cells harbor a stable integration of a β‐lactamase reporter gene under control of the p53 response element. Cells were maintained in McCoy's 5A medium (16600‐082, Invitrogen) with 10% dialyzed FBS (26400‐036, Invitrogen), blasticidin (R210‐01, Invitrogen), and penicillin/streptomycin according to the manufacturer's protocol. Peptides were synthesized as previously described.[16], [17] To set up the assay, peptides were first pre‐plated in assay medium (Opti‐MEM supplemented with 0.1 mM non‐essential amino acids [11140‐050, Invitrogen], 1 mM sodium pyruvate [11360‐070, Invitrogen], and penicillin/streptomycin) without FBS on 384‐well plates (Corning 3764) or 96‐well plates (Corning 3603) using a HP D300E digital dispenser (20 μl 384‐well, 50 μl 96‐well). Maximum DMSO concentration used was 0.3% v/v. Cells were washed, resuspended with 0.05% v/v trypsin, spun down for 5 min at 300× g, and resuspended in PBS. Cells were 70‐μm strained and then brought to a final cell density of 3 × 10^6 cells/ml in PBS. Cell suspension was connected to 15 mL P‐CAP of the DμVS system, and 2 mL were used to prime the system. DμVS process was then initiated at 120 psi and 20 μL (384‐well) or 50 μL (96‐well) were dispensed to microplate in wells that were pre‐defined in the Telios software and pre‐loaded with peptides 2× in assay medium. Unprocessed cells were added to the microplate in parallel. After DμVS processing/mixing with peptide, cells were incubated at 37°C for 4 h. β‐lactamase activity was detected using the ToxBLAzer loading kit (K1095, Invitrogen) according to the manufacturer's protocol. Plates were measured using the PHERAstar FSX microplate reader with a LiveBlazer optic module (1400‐G3M‐FI‐410‐530‐460, BMG Labtech). Maximum p53 activity was defined as the β‐lactamase activity induced by 30 μM MP‐081 (meanpos). Percent activation of individual samples (S) was calculated using the following equation, where meanveh represents the mean of vehicle controls: % activation=S−meanveh/meanpos−meanveh×100
Z‐factors were calculated using the formula: Z^′=1−3σpos+3σveh/meanpos−meanveh
Meanpos and σ pos represent the mean and standard deviation, respectively, of the raw ratiometric values for 30 μM MP‐081 and meanveh and σ veh represent the mean and standard deviation of the vehicle controls. Dose–response data EC50 values were determined using the “[Agonist] versus response—Variable slope (four parameters)” algorithm in GraphPad Prism. Single concentration data for expanded peptide set were analyzed using unpaired T‐tests with false discovery rate (FDR, 1.00%) multiple comparisons correction using the two‐stage step‐up (Benjamini, Krieger, and Yekutieli) method. Data were accumulated from at least five independent experimental runs.

Molecule	Kd (MDM2 (1–125) protein)	p53 activation at 10 μM with and without DμVS [1]	EC50 ([1]; DμVS-based assay format, expanded peptide set, read-out: DμVS-p53 reporter EC50 (validated hits, dose response))
CC(=O)N[C@@H](CC(C)C)C(=O)N[C@H](C(=O)N[C@@H](Cc1ccccc1)C(=O)NC(C)(C)C(=O)N[C@@H](CCC(=O)O)C(=O)N[C@@H](Cc1ccc(O)cc1)C(=O)N[C@@H](Cc1c[nH]c2ccccc12)C(=O)N[C@@H](CCC(N)=O)C(=O)N[C@@H](CC(C)C)C(=O)N[C@@H](CC1CCC1)C(=O)NC(C)(C)C(=O)N[C@@H](CO)C(=O)N[C@@H](C)C(=O)N[C@@H](C)C(=O)O)[C@@H](C)O [MP-788, Ac-Leu-Thr-Phe-Aib-Glu-Tyr-Trp-Gln-Leu-Cba-Aib-Ser-Ala-Ala-OH]	88 nM	–	–
CC(=O)N[C@H](C(=O)N[C@@H](CO)C(=O)N[C@@](C)(Cc1ccccc1)C(=O)N[C@]1(C)CCCCCCC=CCCC[C@@](C)(C(N)=O)NC(=O)[C@H](CC(C)C)NC(=O)[C@H](CC(C)C)NC(=O)[C@H](C)NC(=O)[C@H](Cc2c[nH]c3ccccc23)NC(=O)[C@H](Cc2ccc(O)cc2)NC(=O)[C@H](CCC(=O)O)NC1=O)[C@@H](C)O [MP-159, Ac-Thr-Ser-(ɑ-Me-Phe)-R8*-Glu-Tyr-Trp-Ala-Leu-Leu-S5*-NH2]	15 nM	–	–
CC(=O)N[C@@H](C(=O)N[C@H](C)C(=O)N[C@H](Cc1c[nH]c2ccccc12)C(=O)N[C@H](Cc1ccc(O)cc1)C(=O)N[C@H](C)C(=O)N[C@H](CC(N)=O)C(=O)N[C@H](Cc1ccccc1)C(=O)N[C@H](CCC(=O)O)C(=O)N[C@H](CCCCN)C(=O)N[C@H](CC(C)C)C(=O)N[C@H](CC(C)C)C(=O)N[C@H](CCCNC(=N)N)C(N)=O)[C@H](C)O [MP-183, Ac-DThr-DAla-DTrp-DTyr-DAla-DAsn-DPhe-DGlu-DLys-DLeu-DLeu-DArg-NH2] (Ac-[dT][dA][dW][dY][dA][dN][dF][dE][dK][dL][dL][dR]-NH2)	–	lack of activity	–
CC(C)C[C@@H]1NC(=O)[C@H](C)NC(=O)[C@H](Cc2c[nH]c3ccccc23)NC(=O)[C@H](Cc2ccc(O)cc2)NC(=O)[C@H](CCC(=O)O)NC(=O)[C@](C)(NC(=O)[C@H](Cc2ccccc2)NC(=O)[C@H](CO)NC(=O)[C@@H](NC(=O)[C@H](CO)NC(=O)CNC(=O)[C@H](CO)NC(=O)[C@H](CCCCN=[N+]=[N-])NC(=O)[C@H](CCC(=O)O)NC(=O)[C@@H](N)CCC(=O)O)[C@@H](C)O)CCCCCCC=CCCC[C@@](C)(C(N)=O)NC(=O)[C@H](CC(C)C)NC1=O [MP-181, H-Glu-Glu-Lys(N3)-Ser-Gly-Ser-Thr-Ser-Phe-R8*-Glu-Tyr-Trp-Ala-Leu-Leu-S5*-NH2] (H-EE[Lys(N3)]SGSTSF[R8]EYWALL[S5]-NH2; staple 10-17)	17 nM	–	–
H-Lys(N3)-betaAla-Leu-Thr-Phe-R8*-Glu-Tyr-Trp-Ala-Gln-Cba-S5*-Ser-Ala-Ala-Lys(mPEG24)-NH2 [MP-414]	–	showed functional activity	1000 nM
CC(=O)N[C@@H](CC(C)C)C(=O)N[C@H](C(=O)N[C@@H](Cc1ccccc1)C(=O)N[C@@H](CCC(=O)O)C(=O)N[C@@H](CCC(=O)O)C(=O)N[C@@H](Cc1ccc(O)cc1)C(=O)N[C@@H](Cc1c[nH]c2ccccc12)C(=O)N[C@@H](C)C(=O)N[C@H](CCC(N)=O)C(=O)N[C@@H](CC(C)C)C(=O)N[C@H](C(=O)N[C@@H](CO)C(N)=O)[C@@H](C)O)[C@@H](C)O [MP-793] (Ac-LTFEEYWA[dQ]LTS-NH2)	115 nM	–	–
CC(C)C[C@H]1NC(=O)[C@@H](CCCCN)NC(=O)[C@@H](CCC(=O)O)NC(=O)[C@@H](Cc2ccc(C(F)(F)F)cc2)NC(=O)[C@@H](CC(N)=O)NC(=O)C2(CCCC=CCCCCCC[C@](C)(C(=O)N[C@H](C)C(=O)N[C@H](C)C(=O)N[C@H](C)C(=O)N[C@H](C)C(=O)N[C@H](C)C(=O)N[C@H](C)C(N)=O)NC(=O)[C@@H](CC(C)C)NC1=O)CCCC=CCCC[C@@](C)(N)C(=O)N[C@H](C)C(=O)N[C@H](Cc1c[nH]c3cc(F)ccc13)C(=O)N[C@H](Cc1ccc(O)cc1)C(=O)N2 (some centres unmarked) [MP-231, H-R5*-DAla-DTrp(6-F)-DTyr-B5**-DAsn-DPhe(4-CF3)-DGlu-DLys-DLeu-DLeu-R8*-DAla-DAla-DAla-DAla-DAla-DAla-NH2]	0.53 nM	–	–
CC(=O)N[C@H](CC(C)C)C(=O)N[C@H](C(=O)N[C@@H](Cc1ccccc1)C(=O)N[C@@H](CCC(=O)O)C(=O)N[C@@H](CCC(=O)O)C(=O)N[C@@H](Cc1ccc(O)cc1)C(=O)N[C@@H](Cc1c[nH]c2ccccc12)C(=O)N[C@@H](C)C(=O)N[C@@H](CCC(N)=O)C(=O)N[C@@H](CC(C)C)C(=O)N[C@H](C(=O)N[C@@H](CO)C(N)=O)[C@@H](C)O)[C@@H](C)O [MP-191] (Ac-[dL]TFEEYWAQLTS-NH2)	27 nM	–	–
CC(=O)N[C@@H](CC(C)C)C(=O)N[C@H](C(=O)N[C@H](Cc1ccccc1)C(=O)N[C@]1(C)CCCCCCC=CCCC[C@@](C)(C(=O)N[C@@H](C)C(=O)N[C@@H](C)C(=O)N[C@@H](C)C(=O)N[C@@H](C)C(=O)N[C@@H](C)C(=O)N[C@H](C)C(N)=O)NC(=O)[C@H](CC(C)C)NC(=O)[C@H](CCC(N)=O)NC(=O)[C@H](C)NC(=O)[C@H](Cc2c[nH]c3ccccc23)NC(=O)[C@H](Cc2ccc(O)cc2)NC(=O)[C@H](CCC(=O)O)NC1=O)[C@@H](C)O [MP-990, Ac-Leu-Thr-DPhe-R8*-Glu-Tyr-Trp-Ala-Gln-Leu-S5*-Ala-Ala-Ala-Ala-Ala-DAla-NH2] (Ac-LT[dF][R8]EYWAQL[S5]AAAAA[dA]-NH2; staple 4-11)	–	no activity in either format	–
CC(C)C[C@@H](NC(=O)[C@@H](CC(C)C)NC(=O)[C@@H](CCCCN)NC(=O)[C@@H](CCC(=O)O)NC(=O)[C@@H](Cc1ccccc1)NC(=O)[C@@H](CC(N)=O)NC(=O)[C@@H](C)NC(=O)[C@@H](Cc1ccc(O)cc1)NC(=O)[C@@H](Cc1c[nH]c2ccccc12)NC(=O)[C@@H](C)NC(=O)[C@H](N)[C@H](C)O)C(=O)N[C@H](CCCNC(=N)N)C(N)=O [MP-182, H-DThr-DAla-DTrp-DTyr-DAla-DAsn-DPhe-DGlu-DLys-DLeu-DLeu-DArg-NH2] (H-[dT][dA][dW][dY][dA][dN][dF][dE][dK][dL][dL][dR]-NH2)	–	lack of activity	–
CC(=O)N[C@@H](CCCCN=[N+]=[N-])C(=O)NCCC(=O)N[C@@H](CC(C)C)C(=O)N[C@H](C(=O)N[C@@H](Cc1ccccc1)C(=O)N[C@]1(C)CCCCCCC=CCCC[C@@](C)(C(=O)N[C@@H](CCC(=O)O)C(=O)N[C@@H](C)C(=O)N[C@@H](C)C(=O)N[C@@H](C)C(=O)N[C@@H](C)C(=O)N[C@H](C)C(N)=O)NC(=O)[C@H](CC2CCC2)NC(=O)[C@H](CCC(N)=O)NC(=O)[C@H](C)NC(=O)[C@H](Cc2c[nH]c3ccccc23)NC(=O)[C@H](Cc2ccc(O)cc2)NC(=O)[C@H](CCC(=O)O)NC1=O)[C@@H](C)O [MP-834, Ac-Lys(N3)-betaAla-Leu-Thr-Phe-R8*-Glu-Tyr-Trp-Ala-Gln-Cba-S5*-Glu-Ala-Ala-Ala-Ala-DAla-NH2] (Ac-[Lys(N3)][βAla]LTF[R8]EYWAQ[Cba][S5]EAAAA[dA]-NH2; staple 6-13)	0.97 nM	–	–
CC(C)C[C@@H]1NC(=O)[C@H](C)NC(=O)[C@H](Cc2c[nH]c3ccccc23)NC(=O)[C@H](Cc2ccc(O)cc2)NC(=O)[C@H](CCC(=O)O)NC(=O)[C@](C)(NC(=O)[C@H](Cc2ccccc2)NC(=O)[C@H](CO)NC(=O)[C@@H](NC(=O)[C@H](CO)NC(=O)CNC(=O)[C@H](CO)NC(=O)[C@H](CCCCN=[N+]=[N-])NC(=O)[C@H](CCC(=O)O)NC(=O)[C@H](CCC(=O)O)NC(=O)[C@@H](N)CCC(=O)O)[C@@H](C)O)CCCCCCC=CCCC[C@@](C)(C(N)=O)NC(=O)[C@H](CC(C)C)NC1=O [MP-948, NH2-Glu-Glu-Glu-Lys(N3)-Ser-Gly-Ser-Thr-Ser-Phe-R8*-Glu-Tyr-Trp-Ala-Leu-Leu-S5*-NH2] (H-EEE[Lys(N3)]SGSTSF[R8]EYWALL[S5]-NH2; staple 11-18)	0.85 nM	–	–
Ac-LTFEEYWAQLTS-NH2 [MP-190]	17 nM	–	–
